Experimental data published in patent publication US7119221B2, “Cycloalkyl-hydroxyl compounds and compositions for cholesterol management and related uses” (Esperion Therapeutics, Inc., priority 2003, dated 2006).

What was measured:
obese female Zucker rats = assay: Oral daily treatment of chow fed obese female Zucker rats for fourteen days: serum lipids, glycemic control indicators, body weight; assay type: in vivo, rat; conditions: oral gavage, 14 days; for % wt. gain: obese female Zucker rats; for Glucose, Percent of Pre-treatment: blood glucose after 6 hour fast; for HDL-C, Percent of Pre-treatment / Insulin, Percent of Pre-treatment / Non-HDL-C, Percent of Pre-treatment: serum; for BHA, Percent of Pre-treatment: serum beta-hydroxy butyric acid; for NEFA, Percent of Pre-treatment: serum non-esterified fatty acids; for HDL-C/non-HDL-C: serum ratio; for TC, Percent of Pre-treatment: serum total cholesterol; for TG, Percent of Pre-treatment: serum triglycerides
Description: In a number of different experiments, illustrative compounds of the invention are administered daily at a dose of up to 100 mg/kg to chow fed obese female Zucker rats for fourteen days in the morning by oral gavage in 1.5% carboxymethylcellulose/0.2% Tween 20 or 20% ethanol/80% polyethylene glycol (dosing vehicles). Animals are weighed daily. Animals are allowed free access to rodent chow and water throughout the study except on days of blood sampling where food is restricted for six hours prior to blood sampling. Blood glucose is determined after the 6 hour fast in the afternoon without anesthesia from a tail vein. Serum is also prepared from pretreatment blood samples subsequently obtained from the orbital venous plexus (with O2/CO2 anesthesia) and following the fourteenth dose at sacrifice from the heart following O2/CO2 anesthesia. Serums are assayed for lipoprotein cholesterol profiles, triglycerides, total cholesterol, Non-HDL cholesterol, HDL cholesterol, the ratio of HDL cholesterol to that of Non-HDL cholesterol, insulin, non-esterified fatty acids, and beta-hydroxy butyric acid. The percent body weight gain and the ratio of liver to body weight is also determined. These are shown as absolute values or as a percent change of the pretreatment values in Table 1.

primary rat hepatocytes = assay: Inhibition of lipid synthesis ([1-14C]-acetate incorporation) in primary cultures of rat hepatocytes; assay type: cell-based; conditions: Hepatocyte, 4 hour incubation with [1-14C]-acetate, 0-300 μM compound
Description: Compounds were tested for inhibition of lipid synthesis in primary cultures of rat hepatocytes. Male Sprague-Dawley rats were anesthetized with intraperitoneal injection of sodium pentobarbital (80 mg/kg). Rat hepatocytes were isolated essentially as described by the method of Seglen (Seglen, P. O. Hepatocyte suspensions and cultures as tools in experimental carcinogenesis. J. Toxicol. Environ. Health 1979, 5, 551–560). Hepatocytes were suspended in Dulbecco's Modified Eagles Medium containing 25 mM D-glucose, 14 mM HEPES, 5 mM L-glutamine, 5 mM leucine, 5 mM alanine, 10 mM lactate, 1 mM pyruvate, 0.2% bovine serum albumin, 17.4 mM non-essential amino acids, 20% fetal bovine serum, 100 nM insulin and 20 μg/mL gentamycin) and plated at a density of 1.5×10^5 cells/cm^2 on collagen-coated 96-well plates. Four hours after plating, media was replaced with the same media without serum. Cells were grown overnight to allow formation of monolayer cultures. Lipid synthesis incubation conditions were initially assessed to ensure the linearity of [1-^14C]-acetate incorporation into hepatocyte lipids for up to 4 hours. Hepatocyte lipid synthesis inhibitory activity was assessed during incubations in the presence of 0.25 μCi [1-^14C]-acetate/well (final radiospecific activity in assay is 1 Ci/mol) and 0, 1, 3, 10, 30, 100 or 300 μM of compounds for 4 hours. At the end of the 4-hour incubation period, medium was discarded and cells were washed twice with ice-cold phosphate buffered saline and stored frozen prior to analysis. To determine total lipid synthesis, 170 μl of MicroScint-E® and 50 μl water was added to each well to extract and partition the lipid soluble products to the upper organic phase containing the scintillant. Lipid radioactivity was assessed by scintillation spectroscopy in a Packard TopCount NXT.

| SMILES | IC50 (primary rat hepatocytes) | % wt. gain (obese female Zucker rats; 100 mg/kg/day) | Glucose, Percent of Pre-treatment (obese female Zucker rats; 100 mg/kg/day) | HDL-C, Percent of Pre-treatment (obese female Zucker rats; 100 mg/kg/day) | Insulin, Percent of Pre-treatment (obese female Zucker rats; 100 mg/kg/day) | Non-HDL-C, Percent of Pre-treatment (obese female Zucker rats; 100 mg/kg/day) | BHA, Percent of Pre-treatment (obese female Zucker rats; 100 mg/kg/day) | NEFA, Percent of Pre-treatment (obese female Zucker rats; 100 mg/kg/day) | HDL-C/non-HDL-C (obese female Zucker rats; 100 mg/kg/day) | TC, Percent of Pre-treatment (obese female Zucker rats; 100 mg/kg/day) | TG, Percent of Pre-treatment (obese female Zucker rats; 100 mg/kg/day) | other results |
| --- | --- | --- | --- | --- | --- | --- | --- | --- | --- | --- | --- | --- |
| CC(C)(CCCCC(O)CCCCC1(C(=O)O)CCC1)C(=O)O (stereo not shown) [A] | 12 µM | – | – | – | – | – | – | – | – | – | – | % wt. gain (obese female Zucker rats; 30 mg/kg/day): 12.3%; Glucose, Percent of Pre-treatment (obese female Zucker rats; 30 mg/kg/day): −1%; HDL-C, Percent of Pre-treatment (obese female Zucker rats; 30 mg/kg/day): 76%; Insulin, Percent of Pre-treatment (obese female Zucker rats; 30 mg/kg/day): −8%; Non-HDL-C, Percent of Pre-treatment (obese female Zucker rats; 30 mg/kg/day): −20%; BHA, Percent of Pre-treatment (obese female Zucker rats; 30 mg/kg/day): 150%; NEFA, Percent of Pre-treatment (obese female Zucker rats; 30 mg/kg/day): −30%; HDL-C/non-HDL-C (obese female Zucker rats; 30 mg/kg/day): 4; TC, Percent of Pre-treatment (obese female Zucker rats; 30 mg/kg/day): 37%; TG, Percent of Pre-treatment (obese female Zucker rats; 30 mg/kg/day): −23% |
| O=C(O)C1(CCCCCC(O)CCCCCC2(C(=O)O)CC2)CC1 [B] | 0.9 µM | 4.2% | −24% | 54% | −51% | −94% | 254% | −23% | 153 | 13% | −91% | – |
| O=C(O)C1(CCCCCC(O)CCCCCC2(C(=O)O)CCCC2)CCCC1 [Compound 6.33, 1-[11-(1-Carboxycyclopentyl)-6-hydroxyundecyl]-1-cyclopentanecarboxylic acid] | – | – | – | – | – | – | – | – | – | – | – | melting point: 76 to 77 °C |
| CC(C)(CCCCC(O)CCCCC1(C(=O)O)CC1)C(=O)O (stereo not shown) [Compound E] | 3 µM | 10.4% | −2% | 162% | 2% | 1% | 223% | −24% | 5 | 101% | −34% | – |
| CC(C)(CCCCCC(O)CCCCCC1(C(=O)O)CC1)C(=O)O (stereo not shown) [D] | 1.4 µM | −1.7% | −13% | 15% | −70% | −98% | 195% | −44% | 785 | −11% | −97% | – |
| O=C(O)C1(CCCCC(O)CCCCC2(C(=O)O)CC2)CC1 [F] | 1.8 µM | – | – | – | – | – | – | – | – | – | – | – |
